Columns and labels:
Test in all cases: KINOMEscan
Assay type in all cases: binding
Conditions in all cases: 2000 nM
[1] = target: T1, ABL1(F317I)-nonphosphorylated (Homo sapiens, UniProt P00519, F317I)
T1 construct: DNA label (qPCR read-out); purchased DiscoverX (KINOMEscan service)

MEK1 = target: T2, MEK1 (Homo sapiens, UniProt Q02750)
T2 construct: purchased DiscoveRx (KINOMEscan scanMAX panel, service)

FER = target: T3, FER (Homo sapiens, UniProt P16591)
T3 construct: DNA label (qPCR read-out); purchased DiscoveRx (KINOMEscan ScanMAX panel)
T3 sequence (P16591 whole entry): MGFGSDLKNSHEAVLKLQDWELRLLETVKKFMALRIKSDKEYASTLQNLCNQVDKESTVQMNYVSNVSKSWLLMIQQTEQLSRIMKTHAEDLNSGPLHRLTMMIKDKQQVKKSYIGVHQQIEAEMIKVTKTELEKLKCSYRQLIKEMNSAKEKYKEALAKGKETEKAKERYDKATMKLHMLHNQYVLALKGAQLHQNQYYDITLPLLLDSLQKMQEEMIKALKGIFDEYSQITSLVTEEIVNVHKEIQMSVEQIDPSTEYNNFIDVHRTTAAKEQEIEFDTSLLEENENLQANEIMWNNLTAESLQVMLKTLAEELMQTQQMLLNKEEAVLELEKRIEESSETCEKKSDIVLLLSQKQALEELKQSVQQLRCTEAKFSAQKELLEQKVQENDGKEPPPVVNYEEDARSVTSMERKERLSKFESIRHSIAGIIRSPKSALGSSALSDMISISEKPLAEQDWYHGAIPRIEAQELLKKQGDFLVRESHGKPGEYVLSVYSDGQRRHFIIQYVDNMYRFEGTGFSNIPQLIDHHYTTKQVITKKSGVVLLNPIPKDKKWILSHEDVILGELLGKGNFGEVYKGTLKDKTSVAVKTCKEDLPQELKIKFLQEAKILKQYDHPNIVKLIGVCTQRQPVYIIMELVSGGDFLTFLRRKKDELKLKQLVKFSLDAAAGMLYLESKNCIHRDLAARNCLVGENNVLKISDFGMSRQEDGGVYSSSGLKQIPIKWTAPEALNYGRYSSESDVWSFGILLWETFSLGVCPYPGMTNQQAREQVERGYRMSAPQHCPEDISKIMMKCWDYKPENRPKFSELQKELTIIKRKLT

ARK5 = target: T4, ARK5 (Homo sapiens, UniProt O60285)
T4 construct: DNA label (qPCR read-out); purchased KINOMEscan scanMAX panel (DiscoveRx)

ACVR1 = target: T5, ACVR1 (Homo sapiens, UniProt Q04771)
T5 construct: purchased DiscoveRx (KINOMEscan scanMAX panel, service)

MAP3K15 = target: T6, MAP3K15 (Homo sapiens, UniProt Q6ZN16)
T6 construct: DNA label (qPCR read-out); purchased DiscoverX (KINOMEscan service)

MARK4 = target: T7, MARK4 (Homo sapiens, UniProt Q96L34)
T7 construct: purchased DiscoveRx (KINOMEscan scanMAX panel, service)

MST4 = target: T8, MST4 (Homo sapiens, UniProt Q9P289)
T8 construct: DNA label (for qPCR read-out); purchased KINOMEscan scanMAX panel (DiscoveRx)
T8 sequence (Q9P289 whole entry): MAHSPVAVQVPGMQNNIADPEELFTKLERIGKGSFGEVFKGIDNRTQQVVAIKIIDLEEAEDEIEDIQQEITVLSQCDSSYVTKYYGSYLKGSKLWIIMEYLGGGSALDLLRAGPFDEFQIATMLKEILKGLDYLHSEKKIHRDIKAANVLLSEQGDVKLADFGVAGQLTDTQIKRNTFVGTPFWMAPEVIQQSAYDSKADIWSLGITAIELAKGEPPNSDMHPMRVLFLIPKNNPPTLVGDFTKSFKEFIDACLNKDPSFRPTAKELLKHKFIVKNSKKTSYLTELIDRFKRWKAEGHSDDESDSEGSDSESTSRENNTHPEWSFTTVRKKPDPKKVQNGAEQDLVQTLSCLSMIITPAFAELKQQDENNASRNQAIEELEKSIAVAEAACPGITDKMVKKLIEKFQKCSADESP

OSR1 = target: T9, OSR1 (Homo sapiens, UniProt O95747)
T9 construct: purchased DiscoverX (KINOMEscan service)

PDPK1 = target: T10, PDPK1 (Homo sapiens, UniProt O15530)
T10 construct: DNA label (for qPCR read-out); purchased DiscoveRx (KINOMEscan scanMAX service)

PAK6 = target: T11, PAK6 (Homo sapiens, UniProt Q9NQU5)
T11 construct: purchased DiscoverX (KINOMEscan service)
T11 sequence (Q9NQU5 whole entry): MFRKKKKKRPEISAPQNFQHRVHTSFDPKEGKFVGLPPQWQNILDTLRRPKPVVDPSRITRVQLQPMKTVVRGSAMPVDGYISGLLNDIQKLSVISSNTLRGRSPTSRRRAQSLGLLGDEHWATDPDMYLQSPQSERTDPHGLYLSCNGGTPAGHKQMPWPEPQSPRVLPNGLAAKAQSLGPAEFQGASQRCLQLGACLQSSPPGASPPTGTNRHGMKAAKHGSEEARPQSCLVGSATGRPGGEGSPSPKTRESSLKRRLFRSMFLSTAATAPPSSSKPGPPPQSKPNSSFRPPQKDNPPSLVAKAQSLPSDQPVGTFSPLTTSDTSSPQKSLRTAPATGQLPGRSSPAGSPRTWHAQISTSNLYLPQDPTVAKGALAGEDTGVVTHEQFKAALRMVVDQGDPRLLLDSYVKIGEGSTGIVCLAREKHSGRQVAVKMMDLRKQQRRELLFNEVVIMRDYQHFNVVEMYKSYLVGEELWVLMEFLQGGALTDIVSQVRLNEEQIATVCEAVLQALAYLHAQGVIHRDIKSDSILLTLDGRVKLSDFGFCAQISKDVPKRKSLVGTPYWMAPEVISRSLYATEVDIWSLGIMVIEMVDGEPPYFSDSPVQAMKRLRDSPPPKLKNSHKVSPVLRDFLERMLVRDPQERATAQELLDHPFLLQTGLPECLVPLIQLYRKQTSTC

MAP3K3 = MAP3K3 (Homo sapiens, UniProt Q99759)
Chain of MAP3K3 (Q99759 whole entry): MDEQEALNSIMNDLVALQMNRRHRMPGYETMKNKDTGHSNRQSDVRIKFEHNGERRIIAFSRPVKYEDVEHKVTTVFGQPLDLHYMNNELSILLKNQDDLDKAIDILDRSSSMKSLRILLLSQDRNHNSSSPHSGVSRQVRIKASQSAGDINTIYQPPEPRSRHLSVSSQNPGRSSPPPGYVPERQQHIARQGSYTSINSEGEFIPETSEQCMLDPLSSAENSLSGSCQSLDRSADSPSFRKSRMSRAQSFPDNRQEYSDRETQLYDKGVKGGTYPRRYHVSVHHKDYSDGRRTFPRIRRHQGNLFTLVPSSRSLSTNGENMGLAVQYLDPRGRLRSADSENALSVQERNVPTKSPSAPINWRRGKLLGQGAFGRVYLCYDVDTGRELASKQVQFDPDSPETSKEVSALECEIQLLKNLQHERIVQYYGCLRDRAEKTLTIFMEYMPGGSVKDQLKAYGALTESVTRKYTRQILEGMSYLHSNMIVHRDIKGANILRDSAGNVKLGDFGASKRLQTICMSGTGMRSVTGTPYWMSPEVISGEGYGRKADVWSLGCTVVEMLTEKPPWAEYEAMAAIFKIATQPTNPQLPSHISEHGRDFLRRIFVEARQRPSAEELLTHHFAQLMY

MAST1 = target: T12, MAST1 (Homo sapiens, UniProt Q9Y2H9)
T12 construct: purchased DiscoveRx (KINOMEscan scanMAX panel, service)

RIPK2 = target: T13, RIPK2 (Homo sapiens, UniProt O43353)
T13 construct: DNA label (qPCR read-out); purchased DiscoveRx (KINOMEscan ScanMAX panel)

CSNK1E = target: T14, CSNK1E (Homo sapiens, UniProt P49674)
T14 construct: DNA label (qPCR read-out); purchased DiscoverX (assay service)

FLT4 = target: T15, FLT4 (Homo sapiens, UniProt P35916)
T15 construct: purchased KINOMEscan (DiscoveRx)

PRKD3 = target: T16, PRKD3 (Homo sapiens, UniProt O94806)
T16 construct: purchased DiscoveRx (KINOMEscan scanMAX panel)

AURKC = target: T17, AURKC (Homo sapiens, UniProt Q9UQB9)
T17 construct: DNA label (qPCR read-out); purchased KINOMEscan scanMAX panel (DiscoveRx)

ERK4 = target: T18, ERK4 (Homo sapiens, UniProt P31152)
T18 construct: DNA label (qPCR read-out); purchased DiscoveRx (KINOMEscan ScanMAX panel)

KIT(V559D) = target: T19, KIT(V559D) (Homo sapiens, UniProt P10721, V559D)
T19 construct: DNA label (for qPCR read-out); purchased DiscoveRx (KINOMEscan scanMAX panel)

ANKK1 = target: T20, ANKK1 (Homo sapiens, UniProt Q8NFD2)
T20 construct: DNA label (qPCR read-out); purchased KINOMEscan scanMAX panel (DiscoveRx)
T20 sequence (Q8NFD2 whole entry): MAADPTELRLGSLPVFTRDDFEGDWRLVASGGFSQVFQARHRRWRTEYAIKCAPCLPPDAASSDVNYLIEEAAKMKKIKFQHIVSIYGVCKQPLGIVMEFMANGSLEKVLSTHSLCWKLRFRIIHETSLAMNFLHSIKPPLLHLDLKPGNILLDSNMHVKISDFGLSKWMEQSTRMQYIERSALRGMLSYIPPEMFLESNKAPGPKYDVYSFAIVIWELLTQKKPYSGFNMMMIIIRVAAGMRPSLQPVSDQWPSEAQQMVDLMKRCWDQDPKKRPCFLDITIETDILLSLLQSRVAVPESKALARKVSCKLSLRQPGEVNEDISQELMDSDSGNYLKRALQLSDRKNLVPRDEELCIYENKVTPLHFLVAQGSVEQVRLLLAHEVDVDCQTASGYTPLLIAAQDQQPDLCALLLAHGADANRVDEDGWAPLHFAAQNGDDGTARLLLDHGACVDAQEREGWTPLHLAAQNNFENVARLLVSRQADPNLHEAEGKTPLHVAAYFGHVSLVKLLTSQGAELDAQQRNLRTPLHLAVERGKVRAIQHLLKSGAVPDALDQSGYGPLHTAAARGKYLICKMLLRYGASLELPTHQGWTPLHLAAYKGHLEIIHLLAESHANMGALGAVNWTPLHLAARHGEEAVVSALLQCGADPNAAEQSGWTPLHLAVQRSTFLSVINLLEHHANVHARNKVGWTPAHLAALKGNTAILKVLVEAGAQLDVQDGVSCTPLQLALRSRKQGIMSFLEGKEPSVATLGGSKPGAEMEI

EPHA6 = target: T21, EPHA6 (Homo sapiens, UniProt Q9UF33)
T21 construct: purchased DiscoveRx (KINOMEscan scanMAX panel)

[2] = target: T22, RPS6KA5(Kin.Dom.2-C-terminal) (Homo sapiens, UniProt O75582)
T22 construct: RPS6KA5(Kin.Dom.2); purchased DiscoveRx (KINOMEscan scanMAX panel)

CDK4 = target: T23, CDK4 (Homo sapiens, UniProt P11802)
T23 construct: purchased DiscoverX (KINOMEscan service)

MEK2 = target: T24, MEK2 (Homo sapiens, UniProt P36507)
T24 construct: purchased DiscoveRx (KINOMEscan scanMAX panel, service)
T24 sequence (P36507 whole entry): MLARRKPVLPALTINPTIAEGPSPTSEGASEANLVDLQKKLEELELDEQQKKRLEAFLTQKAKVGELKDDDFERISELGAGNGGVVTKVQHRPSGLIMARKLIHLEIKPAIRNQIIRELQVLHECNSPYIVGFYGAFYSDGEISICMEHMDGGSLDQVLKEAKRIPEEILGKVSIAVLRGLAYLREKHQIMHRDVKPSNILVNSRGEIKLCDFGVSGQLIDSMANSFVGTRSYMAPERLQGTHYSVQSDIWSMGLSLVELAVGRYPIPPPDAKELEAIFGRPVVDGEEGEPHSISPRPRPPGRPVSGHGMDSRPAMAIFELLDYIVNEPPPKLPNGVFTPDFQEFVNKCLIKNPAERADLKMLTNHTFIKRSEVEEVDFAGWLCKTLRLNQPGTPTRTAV

STK35 = target: T25, STK35 (Homo sapiens, UniProt Q8TDR2)
T25 construct: DNA label (for qPCR read-out); purchased DiscoveRx (KINOMEscan scanMAX panel, contract assay)

RIPK4 = target: T26, RIPK4 (Homo sapiens, UniProt P57078)
T26 construct: DNA label (qPCR read-out); purchased DiscoveRx (KINOMEscan ScanMAX panel)

TRKB = target: T27, TRKB (Homo sapiens, UniProt Q16620)
T27 construct: DNA label (qPCR read-out); purchased KINOMEscan (DiscoveRx) ScanMAX panel
T27 sequence (Q16620 32-822): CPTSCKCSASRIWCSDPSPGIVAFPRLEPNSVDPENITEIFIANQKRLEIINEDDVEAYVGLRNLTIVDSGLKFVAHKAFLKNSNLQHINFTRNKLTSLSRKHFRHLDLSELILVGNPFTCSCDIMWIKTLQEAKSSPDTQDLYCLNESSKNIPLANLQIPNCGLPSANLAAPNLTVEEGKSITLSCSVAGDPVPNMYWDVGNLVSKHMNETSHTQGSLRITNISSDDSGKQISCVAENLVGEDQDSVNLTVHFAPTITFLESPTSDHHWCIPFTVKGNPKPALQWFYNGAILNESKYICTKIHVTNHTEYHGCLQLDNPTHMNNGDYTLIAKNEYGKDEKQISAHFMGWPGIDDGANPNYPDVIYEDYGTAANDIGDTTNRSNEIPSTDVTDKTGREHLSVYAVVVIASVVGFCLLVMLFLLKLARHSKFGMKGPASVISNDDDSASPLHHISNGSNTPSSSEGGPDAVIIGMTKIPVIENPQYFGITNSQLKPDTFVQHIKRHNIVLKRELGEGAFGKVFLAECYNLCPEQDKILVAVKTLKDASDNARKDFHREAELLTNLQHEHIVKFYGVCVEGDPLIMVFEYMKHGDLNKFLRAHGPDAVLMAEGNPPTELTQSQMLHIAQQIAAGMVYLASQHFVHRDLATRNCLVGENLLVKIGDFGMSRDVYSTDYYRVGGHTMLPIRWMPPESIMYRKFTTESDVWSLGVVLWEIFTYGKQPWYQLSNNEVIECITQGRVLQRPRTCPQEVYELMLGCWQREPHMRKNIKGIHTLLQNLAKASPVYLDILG

NEK10 = target: T28, NEK10 (Homo sapiens, UniProt Q6ZWH5)
T28 construct: DNA label (qPCR read-out); purchased KINOMEscan (ScanMAX panel service)

CSF1R-autoinhibited = target: T29, CSF1R-autoinhibited (Homo sapiens, UniProt P07333)
T29 construct: DNA label (for qPCR read-out); purchased DiscoveRx (KINOMEscan scanMAX service)

HIPK1 = target: T30, HIPK1 (Homo sapiens, UniProt Q86Z02)
T30 construct: DNA label (for qPCR read-out); purchased DiscoveRx (KINOMEscan scanMAX panel, contract assay)

RIOK3 = target: T31, RIOK3 (Homo sapiens, UniProt O14730)
T31 construct: DNA label (qPCR read-out); purchased DiscoveRx (KINOMEscan ScanMAX panel)
T31 sequence (O14730 whole entry): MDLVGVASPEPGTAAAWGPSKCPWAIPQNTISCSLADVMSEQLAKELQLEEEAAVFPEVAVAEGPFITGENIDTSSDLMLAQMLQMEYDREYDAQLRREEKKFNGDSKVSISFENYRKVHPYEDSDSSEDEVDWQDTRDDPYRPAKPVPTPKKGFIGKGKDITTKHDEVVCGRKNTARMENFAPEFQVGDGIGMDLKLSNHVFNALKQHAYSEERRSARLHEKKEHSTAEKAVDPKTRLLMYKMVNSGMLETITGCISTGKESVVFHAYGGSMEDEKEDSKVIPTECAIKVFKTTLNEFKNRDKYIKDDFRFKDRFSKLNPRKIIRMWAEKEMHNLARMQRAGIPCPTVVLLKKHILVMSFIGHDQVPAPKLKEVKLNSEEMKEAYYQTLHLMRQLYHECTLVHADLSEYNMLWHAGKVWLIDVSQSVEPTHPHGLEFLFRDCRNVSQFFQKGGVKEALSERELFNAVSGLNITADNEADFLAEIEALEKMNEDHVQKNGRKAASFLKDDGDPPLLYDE

MLCK = target: T32, MLCK (Homo sapiens, UniProt Q32MK0)
T32 construct: DNA label (qPCR read-out); purchased KINOMEscan scanMAX panel (DiscoveRx)

PFTAIRE2 = target: T33, PFTAIRE2 (Homo sapiens, UniProt Q96Q40)
T33 construct: DNA label (for qPCR read-out); purchased DiscoveRx (KINOMEscan scanMAX service)

PCTK3 = target: T34, PCTK3 (Homo sapiens, UniProt Q07002)
T34 construct: DNA label (for qPCR read-out); purchased DiscoveRx (KINOMEscan scanMAX service)

PRKD1 = target: T35, PRKD1 (Homo sapiens, UniProt Q15139)
T35 construct: purchased DiscoveRx (KINOMEscan scanMAX panel)

With CN(C)C(=O)c1ccc(N2CCCN(c3ccnc4sc(C(N)=O)c(N)c34)CC2)cc1 [15u, 3-amino-4-(4-(4-(dimethylcarbamoyl)phenyl)-1,4-diazepan-1-yl)thieno[2,3-b]pyridine-2-carboxamide] the “% Ctrl” value [1] was 100 % Ctrl, the “% Ctrl” value (MEK1) was 93 % Ctrl and the “% Ctrl” value (FER) was 99 % Ctrl. The “% Ctrl” value (ARK5) was 57 % Ctrl, the “% Ctrl” value (ACVR1) was 100 % Ctrl and the “% Ctrl” value (MAP3K15) was 97 % Ctrl. The “% Ctrl” value (MARK4) was 100 % Ctrl, the “% Ctrl” value (MST4) was 95 % Ctrl and the “% Ctrl” value (OSR1) was 100 % Ctrl. The “% Ctrl” value (PDPK1) was 100 % Ctrl, the “% Ctrl” value (PAK6) was 82 % Ctrl and the “% Ctrl” value (MAP3K3) was 100 % Ctrl. For the same compound, the “% Ctrl” value (MAST1) was 92 % Ctrl, the “% Ctrl” value (RIPK2) was 100 % Ctrl and the “% Ctrl” value (CSNK1E) was 25 % Ctrl. The “% Ctrl” value (FLT4) was 92 % Ctrl, the “% Ctrl” value (PRKD3) was 94 % Ctrl and the “% Ctrl” value (AURKC) was 100 % Ctrl. For the same compound, the “% Ctrl” value (ERK4) was 72 % Ctrl, the “% Ctrl” value (KIT(V559D)) was 98 % Ctrl and the “% Ctrl” value (ANKK1) was 100 % Ctrl. For the same compound, the “% Ctrl” value (EPHA6) was 100 % Ctrl, the “% Ctrl” value [2] was 95 % Ctrl and the “% Ctrl” value (CDK4) was 73 % Ctrl. For the same compound, the “% Ctrl” value (MEK2) was 88 % Ctrl, the “% Ctrl” value (STK35) was 87 % Ctrl and the “% Ctrl” value (RIPK4) was 89 % Ctrl. For the same compound, the “% Ctrl” value (TRKB) was 88 % Ctrl, the “% Ctrl” value (NEK10) was 93 % Ctrl and the “% Ctrl” value (CSF1R-autoinhibited) was 88 % Ctrl. The “% Ctrl” value (HIPK1) was 86 % Ctrl, the “% Ctrl” value (RIOK3) was 100 % Ctrl and the “% Ctrl” value (MLCK) was 96 % Ctrl. The “% Ctrl” value (PFTAIRE2) was 100 % Ctrl, the “% Ctrl” value (PCTK3) was 100 % Ctrl and the “% Ctrl” value (PRKD1) was 88 % Ctrl.
For [2H]C([2H])([2H])N(C(=O)c1ccc(N2CCCN(c3ccnc4sc(C(N)=O)c(N)c34)CC2)cc1)C([2H])([2H])[2H] [15u_D6, 3-amino-4-(4-(4-(bis(methyl-d3)carbamoyl)phenyl)-1,4-diazepan-1-yl)thieno[2,3-b]pyridine-2-carboxamide], the “% Ctrl” value [1] was 93 % Ctrl, the “% Ctrl” value (MEK1) was 83 % Ctrl and the “% Ctrl” value (FER) was 100 % Ctrl. The “% Ctrl” value (ARK5) was 77 % Ctrl, the “% Ctrl” value (ACVR1) was 100 % Ctrl and the “% Ctrl” value (MAP3K15) was 92 % Ctrl. For the same compound, the “% Ctrl” value (MARK4) was 98 % Ctrl, the “% Ctrl” value (MST4) was 89 % Ctrl and the “% Ctrl” value (OSR1) was 88 % Ctrl. The “% Ctrl” value (PDPK1) was 96 % Ctrl, the “% Ctrl” value (PAK6) was 99 % Ctrl and the “% Ctrl” value (MAP3K3) was 72 % Ctrl. The “% Ctrl” value (MAST1) was 92 % Ctrl, the “% Ctrl” value (RIPK2) was 93 % Ctrl and the “% Ctrl” value (CSNK1E) was 12 % Ctrl. The “% Ctrl” value (FLT4) was 98 % Ctrl, the “% Ctrl” value (PRKD3) was 100 % Ctrl and the “% Ctrl” value (AURKC) was 100 % Ctrl. The “% Ctrl” value (ERK4) was 100 % Ctrl, the “% Ctrl” value (KIT(V559D)) was 91 % Ctrl and the “% Ctrl” value (ANKK1) was 91 % Ctrl. The “% Ctrl” value (EPHA6) was 100 % Ctrl, the “% Ctrl” value [2] was 100 % Ctrl and the “% Ctrl” value (CDK4) was 71 % Ctrl. The “% Ctrl” value (MEK2) was 82 % Ctrl, the “% Ctrl” value (STK35) was 93 % Ctrl and the “% Ctrl” value (RIPK4) was 68 % Ctrl. For the same compound, the “% Ctrl” value (TRKB) was 78 % Ctrl, the “% Ctrl” value (NEK10) was 61 % Ctrl and the “% Ctrl” value (CSF1R-autoinhibited) was 83 % Ctrl. The “% Ctrl” value (HIPK1) was 71 % Ctrl, the “% Ctrl” value (RIOK3) was 95 % Ctrl and the “% Ctrl” value (MLCK) was 100 % Ctrl. The “% Ctrl” value (PFTAIRE2) was 80 % Ctrl, the “% Ctrl” value (PCTK3) was 100 % Ctrl and the “% Ctrl” value (PRKD1) was 92 % Ctrl.
